Laboratory results taken from patent US10766902B2, “Wee-1 inhibiting pyrazolopyrimidinone compounds” (ALMAC DISCOVERY LIMITED, priority 2016, dated 2020).
Where two headings read alike, the source gives them in different places.

Columns and labels:
Wee-1 kinase = Wee-1 kinase (Homo sapiens (Human), UniProt P30291); test: Measurement of Wee-1 kinase activity (ADP-Glo luminescence); assay type: biochemical
Outline: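 Activated Wee-1 preincubated 30 min at RT with compound in Tris/MgCl2 buffer with BSA and DTT, then reacted 1 h at RT with poly(Lys,Tyr 4:1) (2.0 μg/mL) and 30 μM ATP as added aliquot. ADP formed measured by ADP-Glo luminescence; IC50 by non-linear regression of % inhibition.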

FGFR1 = FGFR1 (Homo sapiens (Human), UniProt P11362); test: SelectScreen Kinase Profiling: FGFR1; assay type: biochemical; settings: tested at 300-350 nM
FGFR1, sequence (P11362 22-822): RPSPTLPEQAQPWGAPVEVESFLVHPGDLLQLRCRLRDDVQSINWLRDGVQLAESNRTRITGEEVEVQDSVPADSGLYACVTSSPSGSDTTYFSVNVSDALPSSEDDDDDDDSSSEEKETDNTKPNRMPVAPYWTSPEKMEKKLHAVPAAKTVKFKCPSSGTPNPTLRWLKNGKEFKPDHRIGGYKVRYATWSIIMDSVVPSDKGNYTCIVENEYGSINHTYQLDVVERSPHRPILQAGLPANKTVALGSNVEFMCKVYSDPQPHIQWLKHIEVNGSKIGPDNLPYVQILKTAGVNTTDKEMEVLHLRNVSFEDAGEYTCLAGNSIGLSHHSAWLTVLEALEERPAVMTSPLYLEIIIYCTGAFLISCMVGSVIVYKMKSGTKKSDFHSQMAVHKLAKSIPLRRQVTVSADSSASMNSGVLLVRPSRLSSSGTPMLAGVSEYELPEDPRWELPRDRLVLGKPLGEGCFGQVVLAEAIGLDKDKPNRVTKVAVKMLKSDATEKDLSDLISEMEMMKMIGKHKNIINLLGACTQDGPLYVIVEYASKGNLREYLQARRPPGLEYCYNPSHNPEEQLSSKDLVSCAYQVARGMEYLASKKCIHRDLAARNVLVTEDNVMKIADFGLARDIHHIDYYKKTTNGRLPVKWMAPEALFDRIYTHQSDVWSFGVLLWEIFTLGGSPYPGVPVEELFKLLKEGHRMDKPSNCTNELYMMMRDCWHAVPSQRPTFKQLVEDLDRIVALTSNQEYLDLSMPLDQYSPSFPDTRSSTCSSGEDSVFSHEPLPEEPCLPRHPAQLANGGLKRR
Text: (§1) Table 4 below highlights the selectivity of a representative compound of the invention, Example 5, against a panel of 50 kinases (assessed using the Invitrogen SelectScreen® Kinase Profiling Service).

panel of 50 kinases = test: Invitrogen SelectScreen Kinase Profiling Service, selectivity over the panel; assay type: biochemical; settings: compared with compounds of the prior art
Text: as §1

IRAK4 = IRAK4 (Homo sapiens (Human), UniProt Q9NWZ3); test: SelectScreen Kinase Profiling: IRAK4; assay type: biochemical; settings: tested at 300-350 nM
IRAK4, sequence (Q9NWZ3 whole entry): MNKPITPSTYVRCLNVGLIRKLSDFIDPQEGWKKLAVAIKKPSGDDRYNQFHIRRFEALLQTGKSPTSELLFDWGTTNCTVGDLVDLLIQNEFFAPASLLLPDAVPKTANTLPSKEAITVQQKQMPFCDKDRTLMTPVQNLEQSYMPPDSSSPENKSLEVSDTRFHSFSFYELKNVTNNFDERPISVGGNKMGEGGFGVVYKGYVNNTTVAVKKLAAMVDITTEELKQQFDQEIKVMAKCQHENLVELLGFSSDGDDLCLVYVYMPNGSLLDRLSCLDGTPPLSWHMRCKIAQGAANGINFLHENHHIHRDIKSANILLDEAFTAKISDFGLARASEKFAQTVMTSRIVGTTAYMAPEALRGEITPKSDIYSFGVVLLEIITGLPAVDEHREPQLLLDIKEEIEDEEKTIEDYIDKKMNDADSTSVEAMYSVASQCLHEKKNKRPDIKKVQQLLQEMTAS
Text: as §1

A498 cells = test: Cell viability (CellTiter-Glo), A498; assay type: cell-based; settings: Homo sapiens, A498, 144 h; cell viability after 6 days
Procedure: All cell lines (HT29, A427, A498, SKLU-1) were obtained from the American Type Culture Collection (ATCC), maintained in the recommended media supplemented with 10% (v/v) FBS, 1% (v/v) Penicillin/streptomycin and kept at 37° C. in a humidified atmosphere with 5% CO2. Cells were seeded in 96 wp format typically at a seeding density of 3500-5000 cells/well and treated after 24 hours with increasing concentration of compound from 0 to 100 μM in ½ log unit increments. Cell viability was assessed after 72 hours (HT29, A427) or after 6 days (SKLU-1, A498) by CellTiter-Glo® as recommended by the manufacturer's instructions (Promega). Analysis and EC50 values were derived using GraphPadPrism.

KIT = KIT (Homo sapiens (Human), UniProt P10721); test: SelectScreen Kinase Profiling: KIT; assay type: biochemical; settings: tested at 300-350 nM
KIT, sequence (P10721 26-976): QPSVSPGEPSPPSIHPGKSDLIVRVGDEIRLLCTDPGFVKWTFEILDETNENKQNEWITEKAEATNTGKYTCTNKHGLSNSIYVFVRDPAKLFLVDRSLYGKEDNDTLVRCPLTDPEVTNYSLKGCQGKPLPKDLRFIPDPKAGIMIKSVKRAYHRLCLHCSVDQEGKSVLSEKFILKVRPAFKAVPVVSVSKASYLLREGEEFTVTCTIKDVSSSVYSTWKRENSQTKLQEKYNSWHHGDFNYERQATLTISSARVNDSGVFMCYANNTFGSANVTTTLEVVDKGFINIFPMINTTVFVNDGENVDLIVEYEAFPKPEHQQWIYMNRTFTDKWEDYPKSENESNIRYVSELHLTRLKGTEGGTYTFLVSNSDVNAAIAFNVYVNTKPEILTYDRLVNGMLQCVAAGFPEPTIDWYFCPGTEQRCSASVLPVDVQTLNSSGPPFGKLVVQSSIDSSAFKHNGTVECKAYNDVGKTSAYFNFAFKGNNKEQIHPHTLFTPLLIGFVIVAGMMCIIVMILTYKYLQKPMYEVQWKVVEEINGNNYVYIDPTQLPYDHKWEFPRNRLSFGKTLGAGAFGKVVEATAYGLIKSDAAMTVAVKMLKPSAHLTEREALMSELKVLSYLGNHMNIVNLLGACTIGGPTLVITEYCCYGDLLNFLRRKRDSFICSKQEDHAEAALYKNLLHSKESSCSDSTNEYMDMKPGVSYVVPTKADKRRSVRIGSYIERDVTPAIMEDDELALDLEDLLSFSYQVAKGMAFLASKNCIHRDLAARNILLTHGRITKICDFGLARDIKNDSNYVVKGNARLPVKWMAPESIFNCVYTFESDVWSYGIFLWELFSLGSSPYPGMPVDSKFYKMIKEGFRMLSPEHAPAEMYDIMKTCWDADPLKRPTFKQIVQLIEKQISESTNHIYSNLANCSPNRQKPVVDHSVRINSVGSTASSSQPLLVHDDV
Text: as §1

MAPK8 (JNK1) = MAPK8 (JNK1) (Homo sapiens (Human), UniProt P45983); test: SelectScreen Kinase Profiling: MAPK8 (JNK1); assay type: biochemical; settings: tested at 300-350 nM
MAPK8 (JNK1), sequence (P45983 whole entry): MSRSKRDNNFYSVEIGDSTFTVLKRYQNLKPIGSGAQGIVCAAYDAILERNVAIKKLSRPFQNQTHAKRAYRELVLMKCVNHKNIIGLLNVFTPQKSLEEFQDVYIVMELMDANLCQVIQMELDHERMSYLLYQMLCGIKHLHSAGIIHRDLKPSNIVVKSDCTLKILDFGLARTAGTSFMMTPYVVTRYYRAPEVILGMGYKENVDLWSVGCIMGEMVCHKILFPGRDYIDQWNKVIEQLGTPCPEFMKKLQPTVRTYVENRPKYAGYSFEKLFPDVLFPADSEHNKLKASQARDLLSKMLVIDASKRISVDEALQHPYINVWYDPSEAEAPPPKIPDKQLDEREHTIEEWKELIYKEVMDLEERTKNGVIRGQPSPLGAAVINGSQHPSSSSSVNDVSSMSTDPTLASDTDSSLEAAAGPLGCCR
Text: as §1

CSNK2A1 (CK2 alpha 1) = CSNK2A1 (CK2 alpha 1) (Homo sapiens (Human), UniProt P68400); test: SelectScreen Kinase Profiling: CSNK2A1 (CK2 alpha 1); assay type: biochemical; settings: tested at 300-350 nM
CSNK2A1 (CK2 alpha 1), sequence (P68400 whole entry): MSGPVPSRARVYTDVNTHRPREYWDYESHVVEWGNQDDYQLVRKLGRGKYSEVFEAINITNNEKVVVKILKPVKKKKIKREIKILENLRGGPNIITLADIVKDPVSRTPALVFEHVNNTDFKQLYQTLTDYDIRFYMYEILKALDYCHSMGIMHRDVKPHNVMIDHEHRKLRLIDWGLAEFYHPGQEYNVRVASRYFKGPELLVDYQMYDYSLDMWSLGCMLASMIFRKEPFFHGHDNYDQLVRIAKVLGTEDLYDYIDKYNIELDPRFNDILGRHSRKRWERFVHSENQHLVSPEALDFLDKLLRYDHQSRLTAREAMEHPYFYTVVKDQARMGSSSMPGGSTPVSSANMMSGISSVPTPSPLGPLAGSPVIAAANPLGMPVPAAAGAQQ
Text: as §1

[1] = system: phosphorylation of Cdc2 at Tyr15; test: ELISA for phosphorylation of Cdc2 at Tyr15 in HT-29 / HCT-116 cells; assay type: cell-based; settings: Homo sapiens
Procedure: Method 2: Determining the Effect of Compounds on the Phosphorylation of Cdc2 at Tyr15
The colorectal cancer cell lines HT-29 and HCT-116 were purchased from the ATCC and routinely maintained in McCoy's Medium (Invitrogen) supplemented with 10% Foetal Calf Serum.
The cells were trypsinised from their growing vessel and counted, 100 μL of cell suspension containing 6000 cells was pipetted into black 96 well Co-star plates and incubated overnight to allow adherence to the surface at a temperature of 37° C. and an atmosphere of 5% CO2. Test compounds were formulated in DMSO and diluted in foetal calf serum supplemented medium. Incubating medium was removed by aspiration and diluted drug supplemented medium added to each well.
The plate was returned to the incubator for an additional eight hours at 37° C. and an atmosphere of 5% CO2. Post incubation, the drug supplemented medium was aspirated from each well and the cells were washed once in ice-cold phosphate buffered saline (PBS). 100 μL of cell lysis buffer (Cell Signalling Technologies #9803) containing 20 mM Tris, 150 mM NaCl, 1 mM EDTA, 1 mM EGTA, 1% Triton-X100, 2.5 mM sodium pyrophosphate, 1 mM glycerophosphate, 1 mM Na3VO4 and 1 μg/mL leupeptin was added to each well of the 96 well plate and incubated at 4° C. for 30 min. The samples on the plate were snap frozen at −80° C. until required. Immediately before the continuation of the assay, the sample plate was thawed and centrifuged at 4° C. for 10 min and the supernatant transferred to secondary tubes or 96 well plate.
Cell supernatant was mixed in a ratio of 1:1 with sample dilutent buffer and vortexed for one minute. 100 μL of diluted sample was pipetted into pre-coated plates containing a rabbit polyclonal antibody for phospho-cdc2 (Tyr15) (Cell Signalling Technologies PathScan kit #7176). The plate was sealed and incubated overnight at 4° C.
The plate seal was removed and the well contents aspirated, followed by 3×5 min washes with 200 μL of diluted wash buffer. Between each wash the plate was tapped firmly onto blotting paper to ensure the removal of all kit solution. 100 μL of kit detection antibody was added to each well and the plate re-sealed and incubated at 37° C. for 1 h. Post incubation the plate was washed and processed in a similar manner to that previously described.
100 μL of horseradish peroxidise-linked secondary antibody was added to each test well, the plate sealed and incubated for thirty minutes at 37° C. Post incubation, the plate was washed as previously stated, followed by the addition of 100 μL of 3,3′,5,5′ tetramethylbenzidine (TMB reagent). The plate was sealed and incubated at RT for 30 min.
100 μL of stop solution was added to each well and the underside of the plate wiped with a lint-free tissue, prior to spectrophotometric determination. Absorbance from each well was read at 450 nm within 30 min of the addition of the stop solution.
The percentage of phospho-cdc2 was calculated compared to DMSO control and plotted versus the concentration of inhibitor using GraphPad Prism. Data was fitted using non-linear regression analysis and IC50 values generated.

Wee-1 kinase, sequence (P30291 whole entry): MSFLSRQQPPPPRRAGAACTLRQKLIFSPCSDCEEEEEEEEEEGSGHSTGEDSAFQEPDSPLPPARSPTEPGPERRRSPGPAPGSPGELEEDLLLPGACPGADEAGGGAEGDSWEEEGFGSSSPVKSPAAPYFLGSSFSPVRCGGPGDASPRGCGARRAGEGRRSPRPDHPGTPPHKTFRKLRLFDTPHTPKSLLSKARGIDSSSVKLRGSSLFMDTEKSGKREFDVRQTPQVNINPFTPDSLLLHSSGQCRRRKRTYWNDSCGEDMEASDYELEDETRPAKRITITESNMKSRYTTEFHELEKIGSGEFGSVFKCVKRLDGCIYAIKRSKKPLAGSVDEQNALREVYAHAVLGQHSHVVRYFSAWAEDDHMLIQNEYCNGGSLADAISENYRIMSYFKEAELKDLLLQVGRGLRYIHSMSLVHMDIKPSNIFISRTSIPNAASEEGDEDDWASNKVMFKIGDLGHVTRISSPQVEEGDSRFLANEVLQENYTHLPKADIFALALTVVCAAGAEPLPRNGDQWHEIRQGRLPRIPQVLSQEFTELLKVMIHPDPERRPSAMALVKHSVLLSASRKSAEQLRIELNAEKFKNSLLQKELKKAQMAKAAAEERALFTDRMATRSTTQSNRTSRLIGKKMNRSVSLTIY

IC50 (Wee-1 kinase; Table 5, data obtained as described in the experimental section of the current invention, read-out: Wee-1/nM): 1.2 nM
IC50 (Wee-1 kinase; Table 7, data obtained as described in the experimental section of the current invention, read-out: Wee-1/nM): 1.2 nM
IC50 (Wee-1 kinase; read-out: Wee1 IC50): 1.2 nM
selectivity against a panel of 50 kinases (panel of 50 kinases): greater selectivity
EC50 ([1]; 8 h, Table 2, colorectal cancer cells, eight hours incubation, read-out: ELISA p-CDC2 EC50): 12 nM
EC50 ([1]; Table 3, read-out: ELISA p-CDC2 EC50): 12 nM
EC50 ([1]; Table 5, data obtained as described in the experimental section of the current invention, read-out: ELISA/nM): 12 nM
SMILES: C=CCn1c(=O)c2cnc(Nc3ccc(N4CCN(C)CC4)cc3)nc2n1-c1cccc(N=S(C)(C)=O)n1 [Example 5, 1-(6-{[Dimethyl(oxo)-λ^6-sulfanylidene]amino}pyridine-2-yl)-6-{[4-(4-methylpiperazin-1-yl)phenyl]amino}-2-(prop-2-en-1-yl)-1H,2H,3H-pyrazolo[3,4-d]pyrimidin-3-one]
inhibition of FGFR1 (FGFR1): − (inhibition under 50% (tested at 300-350 nM))
inhibition of IRAK4 (IRAK4): − (inhibition under 50% (tested at 300-350 nM))
EC50 (A498 cells): 25 nM
inhibition of KIT (KIT): − (inhibition under 50% (tested at 300-350 nM))
inhibition of MAPK8 (JNK1) (MAPK8 (JNK1)): − (inhibition under 50% (tested at 300-350 nM))
inhibition of CSNK2A1 (CK2 alpha 1) (CSNK2A1 (CK2 alpha 1)): − (inhibition under 50% (tested at 300-350 nM))
